According to paper PMC7170889, “Synthesis and evaluation of designed PKC modulators for enhanced cancer immunotherapy” (Nature Communications, 2020):

Assays:
PKCδ-GFP fusion protein = molecular target: T1, PKCδ-GFP fusion protein (Homo sapiens, UniProt Q05655); assay: PKCδ-GFP translocation assay in living CHO-k1 cells (confocal microscopy); format: cell-based, Chinese hamster; conditions: for Emax at 0.2 µM: CHO-K1, 200 nM compound; for Emax at 0.2 µM / Emax at 1 µM: read-out: % Translocation (maximum translocation of PKCδ-GFP to the plasma membrane); for minimum effective concentration required to induce translocation of PKC-GFP to the membrane: tested at 200 and 1000 nM; for PKC activation dynamics (shape of translocation curve): Fig. 5c, d; for Emax at 1 µM: CHO-K1, 1000 nM compound
T1 construct: expressed in transfected cells; host or cells: CHO-k1 (Chinese hamster ovary, ATCC)
T1 sequence (Q05655 whole entry, the tested form may be a part): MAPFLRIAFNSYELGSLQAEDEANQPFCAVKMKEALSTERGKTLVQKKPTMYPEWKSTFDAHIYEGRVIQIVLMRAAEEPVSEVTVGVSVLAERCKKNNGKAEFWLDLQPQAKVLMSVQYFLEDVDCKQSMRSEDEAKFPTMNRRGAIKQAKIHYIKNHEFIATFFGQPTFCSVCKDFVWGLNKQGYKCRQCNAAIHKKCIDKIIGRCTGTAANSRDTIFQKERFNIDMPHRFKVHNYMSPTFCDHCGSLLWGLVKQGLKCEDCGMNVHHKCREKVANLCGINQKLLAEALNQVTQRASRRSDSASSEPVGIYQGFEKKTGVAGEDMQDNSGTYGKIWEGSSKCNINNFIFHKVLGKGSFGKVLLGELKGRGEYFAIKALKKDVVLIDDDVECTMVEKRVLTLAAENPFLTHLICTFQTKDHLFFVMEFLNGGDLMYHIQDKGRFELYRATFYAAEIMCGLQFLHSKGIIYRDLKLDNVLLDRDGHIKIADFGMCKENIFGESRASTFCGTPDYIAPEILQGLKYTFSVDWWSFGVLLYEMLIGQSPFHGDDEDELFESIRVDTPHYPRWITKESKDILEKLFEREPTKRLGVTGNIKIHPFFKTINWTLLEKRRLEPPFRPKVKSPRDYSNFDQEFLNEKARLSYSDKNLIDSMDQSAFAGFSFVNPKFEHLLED
Procedure: (§1) With a panel of compounds bearing diverse functionality at C13, we began to explore how these modifications affect PKC binding and biological function. Because an obvious prerequisite for PKC pathway involvement is binding to PKC, compounds were initially evaluated for PKC affinity in a cell-free competitive binding assay with tritiated phorbol dibutyrate ([^3H]-PDBu). Assays were performed with representative members of both the conventional (PKCα) and novel (PKCδ) PKC families. Subsequently, compounds were assayed for PKC isoform translocation in real time in living cells using an optical assay. Translocation to the plasma membrane is the hallmark of PKC activation[18],[57],[60] and therefore monitoring the subcellular localization of a PKCδ-GFP fusion protein via confocal microscopy offers a convenient method for determining whether a compound enters a cell and engages its PKC isoform target. Finally and of clinical significance, we also determined the effect of compounds on CD22 surface expression in vitro in NALM6 cells, an ALL cell line previously studied in connection with CD22-targeted CAR T cell therapy, and two additional lymphoma cell lines[11],[31],[65].
Scale bar represents 25 μm. Experiments performed in n = 3 biological replicates. b–d Cytosolic fluorescence normalized to t = 0 (time immediately prior to addition of compound to media) and plotted against time. Error bars excluded for clarity (data presented as the mean of n = 3 biological replicates). Individual curves with error bars included in Supplementary Information.
PKCδ-GFP Translocation Assay Protocol
Chinese hamster ovary factor K1 (CHO-k1, ATCC) cells were cultured in F-12 Kaighn’s media (Hyclone, 10% fetal bovine serum, 1% penicillin/streptomycin added, reffered to as F-12 +/+ below) at 37 ° C in an incubator (5% CO2). Cell cultures were maintained by splitting cells 1:3 when they reached ~75-100% confluence (every 2-3 days) as follows:
(Gibco) was used to remove the cells from the culture flask (T75, Falcon). 1 mL of the cell suspension was then added to 9 mL of fresh F-12 +/+ and the sample was sub-cultured until reaching confluence (~2-3 days).
Cells were counted using a Countess II Automated Cell Counter (Fisher). The cell suspension was diluted to 240,000 cells/mL with fresh F-12 +/+ and 2.5 mL of this diluted stock was added to one well in a 6-well plate. The cells were then cultured for 24 hours.
Cells were transfected with Lipofectamine 2000 reagent (Invitrogen) or DA 13:11 at a 10:1 charge […]
F-12 +/+ was aspirated and cells were washed with F-12 -/-. 2 mL of fresh F-12 -/- was then added to each well, taking care not to disturb adherent cells. For each well of CHO-k1 cells, 12.5 µL Lipofectamine 2000 reagent (Invitrogen) was added to 250 µL Opti-MEM reduced serum media (Invitrogen) in a polypropylene tube and incubated for 20 minutes at RT. Meanwhile, for each well, 4 µg of PKCδ-GFP pDNA and 250 µL Opti-MEM reduced serum media was added to a separate polypropylene tube. 250 µL of the Lipofectamine 2000 suspension was added to the DNA suspension and the solution incubated for 30 minutes at RT. 500 µL of the Lipofectamine/DNA suspension was added to the respective wells of the 6-well plate. The cells were then incubated at 37 ° C (5% CO2) for ~24 hrs.
F-12 +/+ was aspirated and cells were washed with F-12 -/-. 2.4 mL of fresh F-12 -/- was then added to each well, taking care not to disturb adherent cells. A 4 µg aliquot of PKCδ-GFP pDNA was added to PBS (pH 5.5, final volume 100 µL). 5.6 µL of DA 13:11 (2 mM stock in DMSO) was then added to the DNA solution, and the mixture was gently mixed (by flicking) for 20 seconds, at which point it was added directly to the respective wells of the 6-well plate.

PKCα = molecular target: T2, PKCα (Homo sapiens, UniProt P17252); assay: PKC competitive binding assay with [3H]-phorbol dibutyrate (PKCα); conditions: cell-free, competition with [3H]-PDBu, PS vesicles; read-out: Ki PKCα
T2 construct: purchased Invitrogen
Procedure: as §1
PKC Binding Assay Protocol […]
competition with 3H-phorbol-12,13-dibutyrate (3H-PDBu) as described below. This procedure entails a glass-fiber filtration method to determine bound radioligand.
Preparation of PKC binding assay buffer
To a 50 mL polypropylene tube was added Tris-HCl (pH 7.4, 1 M, 1 mL), KCl (1 M, 2 mL), CaCl2 (0.1 M, 30 μL), and bovine serum albumin (BSA, 40 mg, Sigma-Aldrich). This mixture was diluted to 20 mL with deionized H2O and mixed gently. The buffer was stored on ice until use. The final […]
Supplementary Table1. PKC binding assay buffer composition.
Preparation of phosphatidylserine (PS) vesicles
For every two assays, 3.5 mg phosphatidylserine (Avanti Polar Lipids, porcine, 25 mg/mL CHCl3 solution) was concentrated by removing chloroform under a stream of nitrogen followed by reduced pressure. The solid PS was suspended as vesicles in freshly prepared PKC binding assay buffer (3.5 mL) by sonicating six times for 30 sec, with a 30 sec rest between sonications (Branson Sonifier 250, power = 2, 50% duty cycle). The resulting milky cloudy mixture (1 mg/mL) was stored […]
Preparation of PKC isoform solution
Assay PKC was prepared by dissolving a 4 μg aliquot of the indicated recombinant human PKC isoform (Invitrogen) into 11.6 mL of PKC binding assay buffer (this amount is sufficient for two assays). The diluted PKC was stored on ice for immediate use.
Preparation of 3H-PDBu solution
3H-PDBu (American Radiolabeled Chemicals, Inc.; 1 mCi/mL acetone solution; specific activity: […]) was diluted 10-fold with DMSO. The resulting 500 nM stock solution was further diluted with DMSO to 30 nM.
Preparation of analog compound dilutions
Compound dilutions were prepared by serially diluting from a chosen "high" concentration by factors of 3 or 4. For each analog compound, seven concentrations were used to define the […]
To a polypropylene tube was added 3.3 mL of 1 mg/mL PS vesicles solution, 11 mL of PKC isoform solution, and 1.1 mL of 30 nM 3H-PDBu solution were added. The resulting solution was vortexed to mix and stored on ice.
PKC binding assay protocol
- Glass-fiber filters (Whatman GF/B) were prepared by soaking them in a solution of aqueous polyethyleneimine (10% by vol, 18 mL) in deionized water (600 mL) for ≥1h.
- 500 mL "rinsing buffer" of 20 mM Tris, pH 7.4 was cooled on ice for the duration of the incubation period and for the remainder of the assay.
Triplicate data points were obtained for each analog concentration. For each data point, 280 μL of "Master Mix" Solution and 20 μL of analog compound at a specified concentration were added to a polypropylene tube. Non-specific 3H-PDBu binding was assessed in triplicate by substitution

Structure (SMILES) | cytosolic PKC translocated to the plasma membrane (PKCδ-GFP fusion protein; 200 nM, at 20 min) | Emax at 0.2 µM (PKCδ-GFP fusion protein; CHO-k1 cells, n = 3) [%] | minimum effective concentration required to induce translocation of PKC-GFP to the membrane (PKCδ-GFP fusion protein; CHO-k1 cells) [nM] | Ki (PKCα) [nM] | activity in the PKC translocation assay at 200 nM (PKCδ-GFP fusion protein; 200 nM) | time required for translocation (PKCδ-GFP fusion protein; 200 nM) | PKC activation dynamics (shape of translocation curve) (PKCδ-GFP fusion protein) | % Translocation (maximum translocation of PKCδ-GFP to the plasma membrane) (PKCδ-GFP fusion protein; 200 nM compound, CHO-k1 cells, n = 3) [%] | Emax at 1 µM (PKCδ-GFP fusion protein; CHO-k1 cells, n = 3) [%]
CCCCCC#CC(=O)O[C@H]1/C(=C/C(=O)OC)C[C@H]2C[C@H]([C@@H](C)O)OC(=O)C[C@H](O)C[C@@H]3C[C@H](OC(C)=O)C(C)(C)[C@](O)(C[C@@H]4C[C@H](O)C[C@H](/C=C/C(C)(C)[C@]1(O)O2)O4)O3 [SUW204] | ~ 25% | 25 | 200 | 1.4 | – | – | – | – | –
CCCC=CC=CC(=O)OC1C(=CC(=O)OC)CC2CC(C(C)O)OC(=O)CC(O)CC3CC(OC(C)=O)C(C)(C)C(O)(CC4CC(OC(=O)Nc5ccccc5)CC(C=CC(C)(C)C1(O)O2)O4)O3 (stereo not shown) [SUW208] | – | 75 | 200 | 1 | effectively translocated PKC to the plasma membrane | ~ 15 min | delayed activation patterns | – | –
CCCC=CC=CC(=O)OC1C(=CC(=O)OC)CC2CC(C(C)O)OC(=O)CC(O)CC3CC(OC(C)=O)C(C)(C)C(O)(CC4CC(=CC(=O)OCC)CC(C=CC(C)(C)C1(O)O2)O4)O3 (stereo not shown) [SUW218] | – | – | 200 | 7.1 | – | – | more sustained linear activation dynamics | 55 | –
CCCC=CC=CC(=O)OC1C(=CC(=O)OC)CC2CC(C(C)O)OC(=O)CC(O)CC3CC(OC(C)=O)C(C)(C)C(O)(CC4CC(OC(=O)CCc5c[nH]c6ccccc56)CC(C=CC(C)(C)C1(O)O2)O4)O3 (stereo not shown) [SUW210] | – | – | 1000 | 5.6 | inactive | – | – | – | 75
CCCC=CC=CC(=O)OC1C(=CC(=O)OC)CC2CC(C(C)O)OC(=O)CC(O)CC3CC(OC(C)=O)C(C)(C)C(O)(CC4CC(=CC(=O)OCC)CC(C=CC(C)(C)C1(O)O2)O4)O3 (stereo not shown) [SUW217] | – | 75 | 200 | 9.2 | – | – | – | – | –
CCCC=CC=CC(=O)OC1C(=CC(=O)OC)CC2CC(C(C)O)OC(=O)CC(O)CC3CC(OC(C)=O)C(C)(C)C(O)(CC4CC(OC(=O)CC56CC7CC(CC(C7)C5)C6)CC(C=CC(C)(C)C1(O)O2)O4)O3 (stereo not shown) [SUW209] | – | – | 1000 | 1.6 | inactive | – | – | – | 60
CCC/C=C/C=C/C(=O)O[C@H]1/C(=C/C(=O)OC)C[C@H]2C[C@H]([C@@H](C)O)OC(=O)C[C@H](O)C[C@@H]3C[C@H](OC(C)=O)C(C)(C)[C@](O)(C[C@@H]4C[C@@H](OC(C)=O)C[C@H](/C=C/C(C)(C)[C@]1(O)O2)O4)O3 [SUW207] | – | 60 | 200 | 2 | – | – | – | – | –
